{
  "source": "patent US8101389B2",
  "about": "“Bacterial glutamine synthetases and methods of use” (Athenix Corp, priority 2006, dated 2012)",
  "key": {"[1]": {"tested_on": "E. coli cells with AGS1 variant AGS1m7 (pAX3431), G168C, V214M, K395R, SEQ ID NO:14", "assay": "growth of E. coli on glufosinate plates, ags1m7", "type": "cell-based", "settings": "2, 10, 20, 50, and 100 mM; DH5a; Clone 10", "protocol": "(§1) Mutants of the bacterial glutamine synthetase gene ags1 (SEQ ID NO:1) were created by error-prone mutagenesis using the GENEMORPH® Random Mutagenesis kit, and also using oligo-directed mutagenesis as known in the art. However, many methods are available for creating libraries of mutants. The resulting mutants were cloned into a pUC19 vector, electroporated into either XL-1 or DH5 alpha E. coli cells, and selected for growth on M63+ agar media containing antibiotic and 2, 10, or 20 mM glufosinate. Twenty-two clones were identified as growing on 20 mM glufosinate, and picked for further analysis."}, "[2]": {"tested_on": "E. coli cells with AGS1 variant AGS1m18, F81S, P185S, H212T, V214S, G218S, I303N, SEQ ID NO:36", "assay": "growth of E. coli on glufosinate plates, ags1m18", "type": "cell-based", "protocol": "(§2) Clones expressing AGS1m17, AGS1m18, AGS1m19, or AGS1m20 were all found to be able to grow on plates containing 375 mM glufosinate, whereas no growth of clones expressing AGS1m16 was observed on plates containing 375 mM glufosinate."}, "[3]": {"molecular_target": "Serratia marcescens glutamine synthetase AGS1 variant AGS1m21, N160S, G167R, V214M, SEQ ID NO:42 (Serratia marcescens, UniProt A0A0F6KS08, G167R/N160S/V214M)", "sequence (A0A0F6KS08 whole entry N160S/G167R/V214M)": "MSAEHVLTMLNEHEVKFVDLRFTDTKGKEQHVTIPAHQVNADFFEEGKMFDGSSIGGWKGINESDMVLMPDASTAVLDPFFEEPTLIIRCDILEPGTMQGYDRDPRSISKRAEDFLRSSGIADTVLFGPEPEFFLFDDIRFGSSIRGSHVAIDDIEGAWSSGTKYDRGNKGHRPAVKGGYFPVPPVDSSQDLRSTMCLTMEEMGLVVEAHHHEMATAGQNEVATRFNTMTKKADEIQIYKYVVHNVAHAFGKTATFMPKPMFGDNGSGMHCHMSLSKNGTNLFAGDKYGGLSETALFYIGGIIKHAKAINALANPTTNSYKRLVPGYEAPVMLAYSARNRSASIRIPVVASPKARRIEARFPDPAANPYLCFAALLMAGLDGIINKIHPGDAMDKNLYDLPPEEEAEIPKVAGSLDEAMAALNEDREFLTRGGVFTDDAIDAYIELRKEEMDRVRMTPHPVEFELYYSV", "assay": "enzymatic assay, kinetics of AGS1m21", "type": "biochemical", "text": "(§3) ags1m21 (SEQ ID NO:41) encodes the AGS1m21 protein (SEQ ID NO:42). AGS1m21 is a variant of AGS1 that contains a similar amino acid change identified in other variants (V214M), as well as two novel mutations (N160S and G167R). This enzyme was expressed in E. coli, purified, and the kinetic values Km(glutamate) and Ki(glufosinate) of the variant measured by enzymatic assay."}, "[4]": {"molecular_target": "Serratia marcescens glutamine synthetase AGS1 variant AGS1m1 (pAX3421), V39I, V214M, SEQ ID NO:4 (Serratia marcescens, UniProt A0A0F6KS08, V214M/V39I)", "sequence (A0A0F6KS08 whole entry V39I/V214M)": "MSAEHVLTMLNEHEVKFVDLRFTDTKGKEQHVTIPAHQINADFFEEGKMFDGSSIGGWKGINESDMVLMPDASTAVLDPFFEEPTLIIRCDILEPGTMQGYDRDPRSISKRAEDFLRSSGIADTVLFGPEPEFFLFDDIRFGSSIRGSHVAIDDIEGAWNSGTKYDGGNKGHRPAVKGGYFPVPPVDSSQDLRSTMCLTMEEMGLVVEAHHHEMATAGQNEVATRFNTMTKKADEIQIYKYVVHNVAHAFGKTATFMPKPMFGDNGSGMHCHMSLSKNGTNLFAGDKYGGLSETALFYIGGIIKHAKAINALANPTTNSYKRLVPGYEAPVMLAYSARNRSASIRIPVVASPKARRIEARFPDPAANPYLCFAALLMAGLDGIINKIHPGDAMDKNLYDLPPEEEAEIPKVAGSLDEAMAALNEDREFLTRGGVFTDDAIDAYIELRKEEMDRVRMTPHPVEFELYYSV", "assay": "enzymatic assay of purified 6Xhis AGS1m1 with glufosinate", "type": "biochemical", "settings": "100 uM glufosinate", "text": "(§4) ags1m1 (pAX3421) and ags1m2 (pAX3422) were subcloned into E. coli expression vector pRSF1B (Invitrogen) so as to create an N-terminus encoding a 6Xhis tag, purified and characterized kinetically."}, "[5]": {"tested_on": "E. coli cells with AGS1 variant AGS1m1 (pAX3421), V39I, V214M, SEQ ID NO:4", "assay": "growth of E. coli on glufosinate plates, ags1m1", "type": "cell-based", "protocol": "as §1\nags1m2 was mutagenized by error-prone mutagenesis using GENEMORPH® II Random Mutagenesis kit (Stratagene) according to manufacturer's instructions. Mutagenized PCR product was digested with Sac I and Hind III, and ligated into a pUC vector, similarly digested with Sac I and Hind III. Ligations were transformed into E. coli cells, and plated onto M63+ plates containing antibiotic, and 125 mM glufosinate. Clones growing on 125 mM glufosinate plates were retested on 200 mM glufosinate plates, and compared to similar platings of ags1m1 and ags1m2. […] The DNA sequence of the ags open reading frame in pAX3439 was sequenced, and the gene designated as ags1m16. The DNA sequence of ags1m16 is represented herein as SEQ ID NO:31, and the amino acid sequence is represented herein as SEQ ID NO:32. […]"}, "[6]": {"tested_on": "E. coli cells with AGS1 variant AGS1m19, F81S, P185S, H212S, V214A, G218S, I303N, SEQ ID NO:38", "assay": "growth of E. coli on glufosinate plates, ags1m19", "type": "cell-based", "protocol": "as §2"}, "[7]": {"tested_on": "E. coli cells with AGS1 variant AGS1m20, F81S, P185S, H212M, V214H, G218S, I303N, SEQ ID NO:40", "assay": "growth of E. coli on glufosinate plates, ags1m20", "type": "cell-based", "protocol": "as §2"}, "[8]": {"molecular_target": "T1, Serratia marcescens ATX 20345 glutamine synthetase AGS1, wild type, SEQ ID NO:2 (Serratia marcescens, UniProt A0A0F6KS08)", "T1 construct": "gene cloned as pAX685; dodecamer from known biology", "T1 sequence (A0A0F6KS08 entry or part of it)": "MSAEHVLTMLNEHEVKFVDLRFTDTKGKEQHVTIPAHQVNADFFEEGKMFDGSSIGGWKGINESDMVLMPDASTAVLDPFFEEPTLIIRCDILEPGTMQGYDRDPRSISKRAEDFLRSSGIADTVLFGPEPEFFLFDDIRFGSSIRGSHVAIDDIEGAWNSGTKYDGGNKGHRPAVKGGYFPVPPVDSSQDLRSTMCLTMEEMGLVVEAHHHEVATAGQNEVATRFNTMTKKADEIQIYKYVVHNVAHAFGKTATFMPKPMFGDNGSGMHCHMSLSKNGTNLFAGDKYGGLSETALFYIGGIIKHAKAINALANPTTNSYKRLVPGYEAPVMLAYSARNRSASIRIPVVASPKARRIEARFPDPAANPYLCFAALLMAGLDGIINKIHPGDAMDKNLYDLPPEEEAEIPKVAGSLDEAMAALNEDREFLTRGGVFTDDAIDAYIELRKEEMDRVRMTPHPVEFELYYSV", "assay": "enzymatic assay, kinetics of wild-type AGS1", "type": "biochemical", "text": "as §4, §3\n(§5) The unmodified enzyme (AGS1) was compared to AGS1(AD-) and AGS1m17(AD-) by carrying out enzymatic assays on both enzymes following purification from E. coli. A glutamine synthetase enzyme from E. coli (GlnA) was also tested."}, "[9]": {"molecular_target": "Serratia marcescens glutamine synthetase AGS1 variant AGS1m17(AD-), F81S, P185S, H212T, V214A, G218S, I303N plus tyrosine 398 to phenylalanine, SEQ ID NO:46 (Serratia marcescens, UniProt A0A0F6KS08, F81S/G218S/H212T/I303N/P185S/V214A/Y398F)", "sequence (A0A0F6KS08 whole entry F81S/P185S/H212T/V214A/G218S/I303N/Y398F)": "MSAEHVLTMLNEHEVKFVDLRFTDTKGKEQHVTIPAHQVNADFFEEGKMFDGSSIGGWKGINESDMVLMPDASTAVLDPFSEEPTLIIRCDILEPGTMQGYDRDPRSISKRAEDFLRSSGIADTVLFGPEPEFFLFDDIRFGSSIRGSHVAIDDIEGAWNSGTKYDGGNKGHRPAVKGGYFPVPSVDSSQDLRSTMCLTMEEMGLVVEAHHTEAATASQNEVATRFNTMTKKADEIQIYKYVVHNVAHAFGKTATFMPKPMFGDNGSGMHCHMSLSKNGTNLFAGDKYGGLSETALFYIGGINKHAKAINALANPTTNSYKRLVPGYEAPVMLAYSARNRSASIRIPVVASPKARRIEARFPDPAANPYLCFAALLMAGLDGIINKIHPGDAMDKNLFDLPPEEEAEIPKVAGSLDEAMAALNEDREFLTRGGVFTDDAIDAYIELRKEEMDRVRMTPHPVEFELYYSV", "assay": "enzymatic assay, kinetics of AGS1m17(AD-)", "type": "biochemical", "protocol": "ags1m17(ad-) (SEQ ID NO:45) encoding the AGS1m17(AD-) protein (SEQ ID NO:46), is a variant of ags1m17 in which the putative adenylylation site has been removed by mutating the tyrosine at position 398 of AGS1 to a phenylalanine by site directed mutagenesis.\nas §5"}, "[10]": {"settings": "Table 5, Km glutamate, Ki glufosinate"}},
  "data": [
    {"molecule": "CP(=O)(O)CCC(N)C(=O)O", "note": "(stereo not shown) [glufosinate]", "values": [
      {"measurement": "growth on glufosinate minimal M63+ agar media", "setting": "[1]", "value": "shown to grow"},
      {"measurement": "growth on plates containing 375 mM glufosinate", "setting": "[2]", "value": "able to grow"},
      {"measurement": "Ki", "setting": "[3]", "value": 2000, "unit": "µM"},
      {"measurement": "activity in the presence of glufosinate", "setting": "[4]", "value": "showed activity"},
      {"measurement": "growth on 200 mM glufosinate plates", "setting": "[5]; 200 mM glufosinate", "value": "did not grow"},
      {"measurement": "growth on glufosinate minimal M63+ agar media", "setting": "[5]; 2, 10, 20, 50, and 100 mM, DH5a, Clone 2", "value": "shown to grow"},
      {"measurement": "growth on plates containing 375 mM glufosinate", "setting": "[6]", "value": "able to grow"},
      {"measurement": "growth on plates containing 375 mM glufosinate", "setting": "[7]", "value": "able to grow"},
      {"measurement": "Ki", "setting": "[8]", "value": 13, "unit": "µM"},
      {"measurement": "inhibition by glufosinate", "setting": "[8]; 100 uM glufosinate", "value": "completely inhibited"},
      {"measurement": "(Kcat*Ki)/Km", "setting": "[8]; [10]", "value": 0.32},
      {"measurement": "Ki", "setting": "[9]", "value": 23000, "unit": "µM"},
      {"measurement": "(Kcat*Ki)/Km", "setting": "[9]; [10]", "value": 110.04}
    ]}
  ]
}
